The target in this test is T1, Disintegrin and metalloproteinase domain-containing protein 10 (Homo sapiens, UniProt O14672).
T1 sequence (O14672 whole entry): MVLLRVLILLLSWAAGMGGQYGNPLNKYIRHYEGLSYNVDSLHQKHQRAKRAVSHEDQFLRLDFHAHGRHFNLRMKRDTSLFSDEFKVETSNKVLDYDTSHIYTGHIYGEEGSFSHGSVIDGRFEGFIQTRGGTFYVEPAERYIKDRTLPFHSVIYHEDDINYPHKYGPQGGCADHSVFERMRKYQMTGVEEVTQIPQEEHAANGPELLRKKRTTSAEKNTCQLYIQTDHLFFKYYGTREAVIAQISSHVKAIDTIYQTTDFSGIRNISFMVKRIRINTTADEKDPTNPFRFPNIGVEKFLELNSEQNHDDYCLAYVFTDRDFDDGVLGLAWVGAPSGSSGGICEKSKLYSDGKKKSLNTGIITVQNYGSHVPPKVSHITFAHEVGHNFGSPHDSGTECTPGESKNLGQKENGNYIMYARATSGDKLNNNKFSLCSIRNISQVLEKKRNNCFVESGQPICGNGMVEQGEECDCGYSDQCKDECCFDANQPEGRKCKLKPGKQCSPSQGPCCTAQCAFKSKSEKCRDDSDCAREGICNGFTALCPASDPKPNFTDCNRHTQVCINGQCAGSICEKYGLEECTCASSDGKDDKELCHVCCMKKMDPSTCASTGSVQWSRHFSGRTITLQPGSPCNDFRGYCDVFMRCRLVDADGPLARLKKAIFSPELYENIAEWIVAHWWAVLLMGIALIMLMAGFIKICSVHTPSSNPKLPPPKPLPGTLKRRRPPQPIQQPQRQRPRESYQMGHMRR
Nature of the test: potency of ADAM10 substrate cleavage blockers – biochemical, QFRET, dose response (AID 743254).

Our source for the IC50 values is BindingDB's records for doi:10.7270/Q2930RT9 (The Scripps Research Institute Molecular Screening Center, 2014).

Structures are written as SMILES. pIC50: −log10 of the molar value.

For orientation: pIC50 means the IC50 on a negative log10 scale, so that one unit is a factor of ten. Low readings indicate a large IC50, high ones a small IC50.

For `N#Cc1c(Cl)nc(N=NCc2ccccc2)c(Cl)c1Cl` [2,4,5-tris(chloranyl)-6-[(2E)-2-(phenylmethylidene)hydrazinyl]pyridine-3-carbonitrile], the pIC50 is 4.16.
Consider `Cn1nc(-c2ccccn2)nc2c(=O)n(C)c(=O)nc1-2` [1,6-dimethyl-3-(2-pyridinyl)pyrimido[5,4-e][1,2,4]triazine-5,7(1H,6H)-dione], for which the pIC50 was 4.16.
The result for `Cc1cc(/C=C(/C#N)c2nc3ccccc3[nH]2)c(C)n1-c1ccccc1C(=O)O` [2-[3-[(Z)-2-(1H-benzimidazol-2-yl)-2-cyanoethenyl]-2,5-dimethylpyrrol-1-yl]benzoic acid] reads 4.90; that for `O=C(O)CCc1ccc(-c2ccccc2)n1-c1cccc(C(=O)O)c1` [3-[2-(2-carboxyethyl)-5-phenyl-1-pyrrolyl]benzoic acid], 5.02; that for `CCCNc1c(F)c(F)c2c(C)c3ccccc3nc2c1F` [1,2,4-trifluoro-9-methyl-N-propyl-3-acridinamine], 4.16.
Molecule `Cc1ccc(OCC(=O)Nc2nnc[nH]2)c(Br)c1` [2-(2-bromanyl-4-methyl-phenoxy)-N-(1H-1,2,4-triazol-5-yl)ethanamide] showed a pIC50 of 5.13.
The result for `Oc1cc(N(CCc2ccccc2)C(=S)Nc2cc(Cl)ccc2Cl)c(O)n1-c1c(Cl)cccc1Cl` [3-[2,5-bis(chloranyl)phenyl]-1-[1-[2,6-bis(chloranyl)phenyl]-2,5-bis(oxidanylidene)pyrrolidin-3-yl]-1-(2-phenylethyl)thiourea] reads 4.16; that for `COc1ccc(-c2nnc(SCC(=O)Nc3cc(S(=O)(=O)N4CCCCC4)ccc3Cl)n2N)cc1` [SMR000243460], 5.11; that for `Cc1cccc(S(=O)(=O)C(C#N)c2nc3ccccc3nc2N2CCOCC2)c1` (configuration not stated) [2-(3-methylphenyl)sulfonyl-2-(3-morpholin-4-ylquinoxalin-2-yl)acetonitrile], 4.16.
The result for `O=C1c2ccccc2C(=O)N1CCCc1nc(-c2ccncc2)no1` [2-[3-(3-pyridin-4-yl-1,2,4-oxadiazol-5-yl)propyl]isoindole-1,3-dione] reads 4.43; that for `COc1ccc(N=C(C)c2sc3ccccc3c2O)cc1` [(2Z)-2-[1-(4-methoxyanilino)ethylidene]-1-benzothiophen-3-one], 4.62.
`CN1C(=O)C(=CNCCCCCCCCCCC(=O)O)C(=O)N(C)C1=O` [11-[[1,3-dimethyl-2,4,6-tris(oxidanylidene)-1,3-diazinan-5-ylidene]methylamino]undecanoic acid] gave a pIC50 of 4.88.
`COC(=O)CCCC1=CC2=CC(=O)C(C)(OC(=O)C3CCCC3)C(=O)C2=CO1` (configuration not stated) [SMR000452591] gave a pIC50 of 5.14.
The molecule `CCOC(=O)Cc1csc(NC(=O)c2sc3nc4cc(C)ccc4cc3c2N)n1` [2-[2-[(3-amino-7-methyl-thieno[2,3-b]quinoline-2-carbonyl)amino]thiazol-4-yl]acetic acid ethyl ester] had a pIC50 of 5.11.
The result for `COc1ccc(N2C(=O)NC(=O)C(=Cc3c[nH]c4ccc(Br)cc34)C2=O)c(OC)c1` [(5E)-5-[(5-bromo-1H-indol-3-yl)methylene]-1-(2,4-dimethoxyphenyl)pyrimidine-2,4,6(1H,3H,5H)-trione] reads 5.26; that for `CC(C)C1Nc2ccc(S(N)(=O)=O)cc2C2C=CCC21` (configuration not stated) [SMR000070348], 4.88.
The result for `Cc1cccc(Oc2nc(-c3ccccn3)nc3ccccc23)c1` [2-Pyridin-2-yl-4-m-tolyloxy-quinazoline] reads 4.16.
Take `O=C1OCCN1C(=O)C1=[N+](c2ccc(Br)cc2)N[C-](c2cccc(Cl)c2)[C@H]1c1ccc([N+](=O)[O-])cc1` [MLS000517955]: the pIC50 was 4.67.
The result for `O=C1OCCN1C(=O)C1=[N+](c2ccc(Br)cc2)N[C-](c2ccc(F)cc2)[C@H]1c1ccc([N+](=O)[O-])cc1` [MLS000517953] reads 4.73; that for `O=C(Cn1cncn1)NN=Cc1c2ccccc2cc2ccccc12` [N-(9-anthracenylmethylideneamino)-2-(1,2,4-triazol-1-yl)acetamide], 4.16.
`Fc1c(F)c(C(F)(F)F)c(F)c(F)c1N=NCc1cccs1` [MLS000533109]: the pIC50 is 4.16.
The result for `O=C(CC1CCCCC1)Nc1nc[nH]n1` [2-cyclohexyl-N-(1H-1,2,4-triazol-5-yl)ethanamide] reads 4.16; that for `COC(=O)c1ccc(-n2c(C)cc(CN=Nc3nc(C)cc(=O)[nH]3)c2C)cc1` [SMR000364461], 4.16; that for `N#CCSc1nc2cc(C(=O)N3CCC(C(N)=O)CC3)ccc2c2nc3ccccc3n12` [1-({6-[(cyanomethyl)thio]benzimidazo[1,2-c]quinazolin-3-yl}carbonyl)piperidine-4-carboxamide], 4.74.
The result for `COc1ccc(C=CC(=O)c2c(O)n(CCC3=CCCCC3)c(=O)[nH]c2=O)cc1OC` [SMR000221147] reads 4.16.
For `C(=CN=Nc1nc2ccccc2s1)Cc1ccccc1` [3-phenylacrylaldehyde 1,3-benzothiazol-2-ylhydrazone], the pIC50 was 4.16.
The result for `CSc1nsc2nc(=O)c(/C=C3\C=Nc4ccccc43)c(N)n12` [5-amino-6-[(Z)-3-indolylidenemethyl]-3-(methylthio)-[1,2,4]thiadiazolo[4,5-a]pyrimidin-7-one] reads 5.13; that for `O=c1[nH]c(=O)n(-c2ccc(Br)cc2)c(O)c1C=NCCN1CCCCC1`, 4.93; that for `Cc1ccc(NCC(=O)NN=Cc2ccc(C(=O)O)cc2)cc1` [4-[[2-[(4-methylphenyl)amino]ethanoylhydrazinylidene]methyl]benzoic acid], 4.81.
The result for `Cc1nnc(=O)[nH]c1N=NCC1C=CC(=O)C([N+](=O)[O-])=C1` (configuration not stated) [MLS000585487] reads 4.16; that for `Cc1cc(C=C2C(=O)NC(=O)N(c3ccc(F)cc3)C2=O)c(C)n1-c1cccc(C(=O)O)c1` [3-[3-[(E)-[1-(4-fluorophenyl)-2,4,6-tris(oxidanylidene)-1,3-diazinan-5-ylidene]methyl]-2,5-dimethyl-pyrrol-1-yl]benzoic acid], 4.71; that for `COc1cc(CN=O)cc(Br)c1OCc1ccc(Cl)cc1` [3-bromo-4-[(4-chlorobenzyl)oxy]-5-methoxybenzaldehyde oxime], 4.16.
The result for `O=C1/C(=C/c2cccs2)SC(=S)N1NS(=O)(=O)c1ccccc1` reads 4.16; that for `CC(/C=C1\N=C(SCc2ccccc2Cl)SC1=O)=C\c1ccccc1` [(4Z)-2-[(2-chlorophenyl)methylsulfanyl]-4-[(E)-2-methyl-3-phenyl-prop-2-enylidene]-1,3-thiazol-5-one], 4.92; that for `O=C1C=CC([N+](=O)[O-])=CC1CN=Nc1ccccn1` (configuration not stated) [MLS000585015], 4.56.
As to `COc1cc(OC)c(C2C3=C(CC(C)(C)CC3=O)OC(=N)C2C#N)cc1OC` (configuration not stated) [SMR000054706], the pIC50 was 5.06.
The result for `O=c1[nH][nH]c2cc(=O)n(-c3ccc(Cl)cc3)nc12` [5-(4-chlorophenyl)-1,2-dihydropyrazolo[4,3-c]pyridazine-3,6-dione] reads 5.00.
